Experimental data as given in PubChem BioAssay AID743399 (Broad Institute, 2014).
Inconclusive results are not listed. Active and inactive are the calls of the source.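 The calls were made as follows: active = compounds lowering the signal whose fitted AC50 is no more than twice their top tested dose; inconclusive = flat curve with activity from -70 to -30%, or bad fit; inactive = the rest.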

Tested on: not listed separately
Experiment: enhancers of miR-122 activity, Renilla sensor – cell-based, psiCHECK-miR122, Huh7, dry powder, miR-122 modulator project, dose response (AID 743399)
Conditions: Huh7 psiCHECK-miR122 Renilla luciferase reporter, 48 h; at 35 µM (top of the series)

Compound	activity change, negative = miR122 activation
CN1C(=O)c2cc(NC(=O)c3cccc(F)c3)ccc2OC[C@H]2O[C@@H](CC(=O)O)CC[C@H]21	52.2% (inactive)
C[C@H]1CN([C@@H](C)CO)C(=O)c2cc(-c3ccc(C#N)cc3)cnc2O[C@H]1CN(C)C(=O)c1ccccc1	10.9% (inactive)
CN1C(=O)c2cc(NC(=O)c3cccc(F)c3)ccc2OC[C@@H]2O[C@H](CC(=O)O)CC[C@H]21	-41.3% (inactive)
CCCCN(CCCC)C(=O)CN(C)S(=O)(=O)c1ccc2c(c1)n(C)c(=O)c(=O)n2C	46.2% (inactive)
CO[C@@H]1CN(C)C(=O)c2cc(NC(=O)c3ccc4c(c3)OCO4)ccc2OC[C@H](C)NC[C@@H]1C	-21.7% (inactive)
Cc1cc(C(C)(C)C)cc(S(=O)(=O)N2CCOCC2)c1C	92.3% (inactive)
O=C(NCc1ccccc1Cl)c1ccc(CNc2c(NC3CCCCC3)c(=O)c2=O)cc1	-30.8% (inactive)
CN1C(=O)c2cc(NC(=O)c3cccc(F)c3)ccc2OC[C@H]2O[C@@H](CC(=O)O)CC[C@@H]21	20.2% (inactive)
COc1cccc(C(=O)Nc2ccc3c(c2)C(=O)N(C)C[C@@H](OC)[C@@H](C)CN[C@@H](C)CO3)c1	4.35% (inactive)
O=C(CN=C1NS(=O)(=O)c2ccccc21)Nc1ccccc1N1CCCCCC1	-23.1% (inactive)
CO[C@@H]1CN(C)C(=O)c2cc(NS(=O)(=O)c3ccc(Oc4ccccc4)cc3)ccc2OC[C@H](C)NC[C@@H]1C	8.7% (inactive)
C/C=C/c1cnc2c(c1)C(=O)N([C@@H](C)CO)C[C@H](C)[C@H](CN(C)S(=O)(=O)c1ccc(OC)cc1)O2	26.1% (inactive)
CN1C(=O)c2cc(NC(=O)c3cccc(F)c3)ccc2OC[C@H]2O[C@H](CC(=O)O)CC[C@@H]21	-21.7% (inactive)
CN1C(=O)c2cc(NC(=O)c3cccc(F)c3)ccc2OC[C@@H]2O[C@H](CC(=O)O)CC[C@@H]21	-15.2% (inactive)
Cn1c(=O)c(=O)n(C)c2cc(S(=O)(=O)N3CCOCC3)ccc21	0% (inactive)
CCOC(=O)N1CCC(NC(=O)c2ccc3nc(N4CCC(C)CC4)sc3c2)CC1	53.8% (inactive)
COCC(=O)N(C)C[C@@H]1Oc2ncc(-c3ccc(C#N)cc3)cc2C(=O)N([C@@H](C)CO)C[C@@H]1C	-4.35% (inactive)
O=C(Nc1ccc(-c2nc3ccccc3o2)cc1)c1cc(-n2cnnc2)ccc1Cl	0% (inactive)
O=S(=O)(NCCc1ccncc1)c1ccccc1	515% (inactive)
O=C(c1ccc(CN2CCOCC2)cc1)N1CCc2ccccc21	15.4% (inactive)
CCOC(=O)N1CCC(NC(=O)c2ccc3c(c2)sc2nc(-c4ccccc4)cn23)CC1	-23.1% (inactive)
C[C@H]1CN([C@@H](C)CO)C(=O)c2cc(-c3ccc(C#N)cc3)cnc2O[C@H]1CN(C)Cc1cncnc1	-10.9% (inactive)
CN1C(=O)c2cc(NC(=O)c3cccc(F)c3)ccc2OC[C@@H]2O[C@@H](CC(=O)O)CC[C@@H]21	-10.9% (inactive)
CN1C(=O)c2cc(NC(=O)c3cccc(F)c3)ccc2OC[C@H]2O[C@H](CC(=O)O)CC[C@H]21	-17.4% (inactive)

Tested on: Huh7 psiCHECK-miR122 Renilla luciferase reporter, 48 h
Experiment: as above
Conditions: not given

Compound	AC50
Cc1cc(C(C)(C)C)cc(S(=O)(=O)NCCc2ccncc2)c1C	2.34 µM
CO[C@@H]1CN(C)C(=O)c2cc(NC(=O)c3cccc(Oc4ccccc4)c3)ccc2OC[C@H](C)NC[C@@H]1C	7.62 µM
COCC(=O)N(C)C[C@H]1Oc2cc(-c3ccc(C#N)cc3)ccc2S(=O)(=O)N([C@H](C)CO)C[C@H]1C	0.324 µM
C[C@H]1CN([C@@H](C)CO)S(=O)(=O)c2ccc(C#Cc3ccncc3)cc2O[C@@H]1CN(C)C(=O)C1CCOCC1	9.44 µM
Cc1cccc(NC(=O)Nc2ccc3c(c2)C(=O)N(C)[C@@H]2CC[C@H](CC(=O)NCc4ccccc4Cl)O[C@H]2CO3)c1	22.2 µM
COCC(=O)N(C)C[C@H]1Oc2cc(-c3ccccc3F)ccc2S(=O)(=O)N([C@H](C)CO)C[C@H]1C	< 0.26 µM
CCn1cc(C(=O)O)c(=O)c2cc(F)c(N3CCNCC3)nc21	> 70 µM (inactive)
CCCC#Cc1ccc2c(c1)O[C@H](CN(C)C(=O)COC)[C@H](C)CN([C@@H](C)CO)S2(=O)=O	1.1 µM
C[C@@H]1CN([C@H](C)CO)S(=O)(=O)c2ccc(C#Cc3ccncc3)cc2O[C@@H]1CN(C)C(=O)C1CCOCC1	0.896 µM
O=C(c1ccc(CNc2c(NC3CCCCC3)c(=O)c2=O)cc1)N1CCc2ccccc21	1.18 µM
C[C@H](CO)N1C[C@H](C)[C@@H](CN(C)C(=O)C2CCOCC2)Oc2cc(C#Cc3ccncc3)ccc2S1(=O)=O	5.46 µM
C[C@@H]1CN([C@H](C)CO)S(=O)(=O)c2ccc(C#Cc3ccncc3)cc2O[C@H]1CN(C)C(=O)C1CCOCC1	0.496 µM
C[C@@H]1CN([C@H](C)CO)S(=O)(=O)c2ccc(/C=C/c3ccccc3)cc2O[C@@H]1CN(C)C(=O)c1cccnc1	7.29 µM
COc1cccc(-c2ccc3c(c2)O[C@H](CN(C)C(=O)C2CCOCC2)[C@H](C)CN([C@@H](C)CO)S3(=O)=O)c1	4.07 µM
OCc1ccc(-c2nn(Cc3ccccc3)c3ccccc23)o1	0.449 µM
CN(C)CCN1C(=O)c2cccc3cc(N)cc(c23)C1=O	10.7 µM

Compound	AC50
CN1C(=O)c2cc(NC(=O)c3cccc(F)c3)ccc2OC[C@@H]2O[C@@H](CC(=O)O)CC[C@H]21	> 60 µM (inactive)
C[C@H]1CN([C@@H](C)CO)C(=O)c2cc(-c3ccc(C#N)cc3)cnc2O[C@H]1CN(C)C(=O)Nc1ccc(C(F)(F)F)cc1	6.96 µM
O=C(CNCCC1=CCCCC1)Nc1ccccc1N1CCCCCC1	16.3 µM
Nc1ccc(Oc2ccc(Br)cc2)cc1	1.09 µM
COc1ccc(S(=O)(=O)N(C)C[C@@H]2Oc3ncc(/C=C/c4ccccc4)cc3C(=O)N([C@@H](C)CO)C[C@@H]2C)cc1	22.1 µM
C[C@@H]1CN([C@@H](C)CO)S(=O)(=O)c2ccc(C#Cc3ccncc3)cc2O[C@@H]1CN(C)C(=O)C1CCOCC1	0.838 µM
COCC(=O)N(C)C[C@H]1Oc2cc(C#Cc3cccnc3)ccc2S(=O)(=O)N([C@H](C)CO)C[C@H]1C	< 0.26 µM
COCC(=O)N(C)C[C@H]1Oc2cc(C#Cc3cccnc3)ccc2S(=O)(=O)N([C@@H](C)CO)C[C@H]1C	0.354 µM
C[C@H]1CN([C@@H](C)CO)S(=O)(=O)c2ccc(C#Cc3ccncc3)cc2O[C@H]1CN(C)C(=O)C1CCOCC1	20.7 µM
COCC(=O)N(C)C[C@H]1Oc2cc(-c3ccccc3F)ccc2S(=O)(=O)N([C@@H](C)CO)C[C@H]1C	0.278 µM
COCC(=O)N(C)C[C@H]1Oc2cc(-c3ccc(C#N)cc3)ccc2S(=O)(=O)N([C@@H](C)CO)C[C@H]1C	0.341 µM
C[C@H]1CN([C@@H](C)CO)C(=O)c2cc(C#Cc3ccccc3F)cnc2O[C@H]1CN(C)C(=O)C1CCCCC1	20.6 µM
Nc1ccc(Oc2ccc(Cl)cc2)cc1	3.4 µM
CCCC#Cc1ccc2c(c1)O[C@H](CN(C)C(=O)c1ccncc1)[C@H](C)CN([C@@H](C)CO)S2(=O)=O	12.8 µM
CNC[C@@H]1Oc2cc(C#CC3CCCCC3)ccc2S(=O)(=O)N([C@@H](C)CO)C[C@@H]1C	14.4 µM
